Measured values taken from patent US20030092197A1, “Proteins, genes and their use for diagnosis and treatment of cardiac response” (priority 2000, published 2003).

What was measured:
[1] = test system: spontaneous hypertensive rat; assay: Severity of cardiac myocyte histopathologic lesions graded by light microscopy; type: in vivo; settings: scale of 0 to 3; 7 weekly injections; doxorubicin 1 mg/kg i.v., dexrazoxane 50 mg/kg i.p.
Experimental: (§1) Cardiac response was induced by treatment with doxorubicin (DX) 1 mg/kg either alone or 30 min after an i.p. injection of dexrazoxane (ICRF) 50 mg/kg as described in the Examples infra. Treatment with ICRF alone was also administered. The treatment comprised of 7 weekly injections and samples were taken within 24 h after the final injection.
Doxorubicin is a marketed anthracycline anticancer drug that causes a serious chronic cardiac toxicity. The spontaneous hypertensive rat is a useful animal model to study this toxicity. Furthermore by incorporating a cardioprotectant in the study design, the association of protein markers with the undesirable cardiotoxicity of the cardiotoxic agent is strengthened. Pretreatment with the intracellular iron chelating compound dexrazoxane (also referred to as ICRF-187) provides significant cardioprotection against clinical doxorubicin-induced cardiotoxicity and the drug has been FDA approved for this indication.
Samples from animals treated to induce cardiac reponse or treated with a cardioprotectant can be collected, prepared and analysed as described herein. […]
The severity of cardiac myocyte histopathologic lesions (cytoplasmic vacuolization and myofibrillar loss) was graded semiquantitatively by light microscopy on a scale of 0 to 3. […] Plasma cardiac troponin T concentrations were measured by chemiluminescent immunoassay. […]

[2] = test system: Cardiac Response-Associated Features (CRFs) in blood; assay: 2D gel electrophoresis of blood: CRFs differentially expressed in treated vs control animals (fold change); type: in vivo, rat
Experimental: Using the following procedure, proteins in blood samples from control animals and animals having cardiac response were separated by isoelectric focusing followed by SDS-PAGE and analyzed. Serial samples were taken over time. Parts 6.1.2 to 6.1.15 (inclusive) of the procedure set forth are hereby designated as the “Reference Protocol”
as §1
Samples from animals treated to induce cardiac reponse or treated with a cardioprotectant can be collected, prepared and analysed as described herein. In the studies provided herein, animals were administered an intravenous injection of either (i) doxorubicin 1 mg/kg alone; (ii) doxorubicin 1 mg/kg 30 min after an i.p. injection of dexrazoxane 50 mg/kg or (iii) treated with dexrazoxane 50 mg/kg alone. Control groups received saline only. 7 weekly injections were administered and samples were collected 24 h after the final injection. Plasma was collected for discovery of novel biomarkers of cardiac damage using 2-D gel electrophoresis and for measurement of cardiac specific troponin T levels. Tissues were collected for histopathological confirmation of cardiac tissue injury.
A protein assay (Pierce BCA Cat # 23225) was performed on each serum sample as received. Prior to protein separation, each sample was processed for selective depletion of certain proteins, in order to enhance and simplify protein separation and facilitate analysis by removing proteins that may interfere with or limit analysis of proteins of interest. See International Patent Application No. PCT/GB99/01742, filed Jun. 1, 1999, which is incorporated by reference in its entirety, with particular reference to the experimental protocol.
Removal of albumin, haptoglobin, transferrin and immunoglobin G (IgG) from blood (“blood depletion”) was achieved by an affinity chromatography purification step in which the sample was passed through a series of ‘Hi-Trap’ columns containing immobilized antibodies for selective removal of albumin, haptoglobin and transferrin, and protein G for selective removal of immunoglobin G. Two affinity columns in a tandem assembly were prepared by coupling antibodies to protein G-sepharose contained in Hi-Trap columns (Protein G-Sepharose Hi-Trap columns (1 ml) Pharmacia Cat. No. 17-0404-01). This was done by circulating the following solutions sequentially through the columns: (1) Dulbecco's Phosphate Buffered Saline (Gibco BRL Cat. No. 14190-094); (2) concentrated antibody solution; (3) 200 mM sodium carbonate buffer, pH 8.35; (4) cross-linking solution (200 mM sodium carbonate buffer, pH 8.35, 20 mM dimethylpimelimidate); and (5) 500 mM ethanolamine, 500 mM NaCl. A third (un-derivatised) protein G Hi-Trap column was then attached to the lower end of the tandem column assembly.
The chromatographic procedure was automated using an Akta Fast Protein Liquid Chromatography (FPLC) System such that a series of up to seven runs could be performed sequentially. The samples were passed through the series of 3 Hi-Trap columns in which the affinity chromatography media selectively bind the above proteins thereby removing them from the sample. Fractions (typically 3 ml per tube) were collected of unbound material (“Flowthrough fractions”) that eluted through the column during column loading and washing stages and of bound proteins (“Bound/Eluted fractions”) that were eluted by step elution with Immunopure Gentle Ag/Ab Elution Buffer (Pierce Cat. No. 21013). The eluate containing unbound material was collected in fractions which were pooled, desalted/concentrated by centrifugal ultrafiltration and stored to await further analysis by 2D PAGE. […]

For `COc1cccc2c1C(=O)c1c(O)c3c(c(O)c1C2=O)C[C@@](O)(C(=O)CO)C[C@@H]3O[C@H]1C[C@H](N)[C@H](O)[C@H](C)O1` [DX, doxorubicin], the “average lesion score (cytoplasmic vacuolization and myofibrillar loss)” value [1] was 2.1, the “FC DX vs Control” value ([2]; CRF 2, pI 5.7, MW 12,367 Da, P 0.010) was −10.29 and the “FC DX vs Control” value ([2]; CRF 4, pI 5.2, MW 15,589 Da, P 1.7E-04) was −9.20. For the same compound, the “FC DX vs Control” value ([2]; CRF 6, pI 4.6, MW 34,921 Da, P 1.0E-03) was −7.77, the “FC DX vs Control” value ([2]; CRF 9, pI 5.2, MW 15,591 Da, P 1.5E-03) was −5.72 and the “FC DX vs Control” value ([2]; CRF 10, pI 5, MW 51,899 Da, P 0.007) was −6.99. The “FC DX vs Control” value ([2]; CRF 19, pI 5.7, MW 68,576 Da, P 3.7E-04) was −5.12, the “FC DX vs Control” value ([2]; CRF 44, pI 5.8, MW 52,589 Da, P 1.1E-03) was 4.83 and the “FC DX vs Control” value ([2]; CRF 47, pI 4.4, MW 11,368 Da, P 0.010) was 6.81. For the same compound, the “FC DX vs Control” value ([2]; CRF 58, pI 6.8, MW 34,063 Da, P 0.003) was 5.43, the “FC DX vs Control” value ([2]; CRF 69, pI 5.2, MW 54,619 Da, P 0.005) was −3.54 and the “FC DX vs Control” value ([2]; CRF 79, pI 6.8, MW 80,678 Da, P 1.6E-04) was −4.51. The “FC DX vs Control” value ([2]; CRF 82, pI 7.6, MW 77,393 Da, P 2.9E-04) was −9.06, the “FC DX vs Control” value ([2]; CRF 84, pI 4.8, MW 73,524 Da, P 1.1E-03) was −8.60 and the “FC DX vs Control” value ([2]; CRF 90, pI 5.2, MW 67,336 Da, P 0.005) was −3.93. The “FC DX vs Control” value ([2]; CRF 92, pI 6.0, MW 63,037 Da, P 0.006) was −8.26, the “FC DX vs Control” value ([2]; CRF 103, pI 5, MW 56,471 Da, P 0.007) was −6.02 and the “FC DX vs Control” value ([2]; CRF 104, pI 7, MW 53,989 Da, P 0.003) was −11.48. The “FC DX vs Control” value ([2]; CRF 112, pI 7.1, MW 47,499 Da, P 0.006) was 4.92, the “FC DX vs Control” value ([2]; CRF 115, pI 7.1, MW 38,136 Da, P 2.3E-04) was 3.55 and the “FC DX vs Control” value ([2]; CRF 118, pI 6.5, MW 33,117 Da, P 3.4E-04) was −4.82. The “FC DX vs Control” value ([2]; CRF 122, pI 5.3, MW 24,915 Da, P 0.003) was 3.98, the “FC DX vs Control” value ([2]; CRF 127, pI 4.8, MW 23,325 Da, P 0.006) was 5.25 and the “FC DX vs Control” value ([2]; CRF 129, pI 5.4, MW 17,765 Da, P 0.010) was 4.29. For the same compound, the “FC DX vs Control” value ([2]; CRF 130, pI 4.8, MW 14,082 Da, P 0.009) was −4.56, the “FC DX vs Control” value ([2]; CRF 131, pI 4.3, MW 11,917 Da, P 0.009) was 4.28 and the “FC DX vs Control” value ([2]; CRF 134, pI 5.1, MW 51,125 Da, P 0.009) was 7.99. For the same compound, the “FC DX vs Control” value ([2]; CRF 135, pI 7.3, MW 85,176 Da, P 1.2E-05) was 4.77, the “FC DX vs Control” value ([2]; CRF 142, pI 5.4, MW 105,458 Da, P 0.007) was −5.30 and the “FC DX vs Control” value ([2]; CRF 144, P 3.7E-04) was −3.70. For the same compound, the “FC DX vs Control” value ([2]; CRF 145, P 4.5E-04) was 3.68, the “FC DX vs Control” value ([2]; CRF 146, P 6.2E-04) was −4.19 and the “FC DX vs Control” value ([2]; CRF 147, P 0.002) was −4.61. The “FC DX vs Control” value ([2]; CRF 148, P 0.002) was −5.11, the “FC DX vs Control” value ([2]; CRF 149, P 0.002) was −3.78 and the “FC DX vs Control” value ([2]; CRF 150, pI 4.11, MW 47828 Da, P 0.003) was −8.39. For the same compound, the “FC DX vs Control” value ([2]; CRF 151, P 0.003) was 3.50, the “FC DX vs Control” value ([2]; CRF 152, P 0.003) was −3.97 and the “FC DX vs Control” value ([2]; CRF 153, P 0.004) was −4.57. The “FC DX vs Control” value ([2]; CRF 154, pI 7.79, MW 55965 Da, P 0.004) was 5.39, the “FC DX vs Control” value ([2]; CRF 155, P 0.004) was −3.84 and the “FC DX vs Control” value ([2]; CRF 156, pI 6.89, MW 78237 Da, P 0.005) was −3.99. The “FC DX vs Control” value ([2]; CRF 157, P 0.005) was −3.54, the “FC DX vs Control” value ([2]; CRF 158, P 0.005) was −4.59 and the “FC DX vs Control” value ([2]; CRF 159, P 0.006) was 4.04. The “FC DX vs Control” value ([2]; CRF 160, P 0.006) was −6.43, the “FC DX vs Control” value ([2]; CRF 161, P 0.006) was 4.58 and the “FC DX vs Control” value ([2]; CRF 162, P 0.006) was −4.37. The “FC DX vs Control” value ([2]; CRF 163, P 0.006) was 5.15, the “FC DX vs Control” value ([2]; CRF 164, pI 4.51, MW 72286 Da, P 0.007) was 4.75 and the “FC DX vs Control” value ([2]; CRF 165, P 0.007) was −5.52. The “FC DX vs Control” value ([2]; CRF 166, P 0.008) was −3.86, the “FC DX vs Control” value ([2]; CRF 167, P 0.008) was 3.77 and the “FC DX vs Control” value ([2]; CRF 168, P 0.009) was 4.20.
`C[C@@H](CN1CC(=O)NC(=O)C1)N1CC(=O)NC(=O)C1` [ICRF, dexrazoxane] was tested, and the “average lesion score (cytoplasmic vacuolization and myofibrillar loss)” value [1] was 0, the “FC ICRF vs Control” value ([2]; CRF 28, pI 5.7, MW 26,409 Da, P 0.004) was −2.93 and the “FC ICRF vs Control” value ([2]; CRF 56, pI 4.9, MW 48,318 Da, P 0.004) was 3.12. For the same compound, the “FC ICRF vs Control” value ([2]; CRF 162, P 0.003) was −3.47.
